# Results from article PMC3765824, “Trough colistin plasma level is an independent risk factor for nephrotoxicity: a prospective observational cohort study” (BMC Infectious Diseases, 2013).
# Like-named read-outs stand apart in the source and are kept apart here. Bridge positions count the residues as written; N and C are the ends. Square brackets hold non-standard residues; d marks the D form. Peptide text beside a SMILES is read from it. * marks the point of attachment. X1 = CC[C@H](C)CCCCC(=O)*; Dab = NCC[C@H](N)C(=O)O
# What was measured:
# [1] = Colistin plasma concentrations at steady state (HPLC); assay type: in vivo, patients; settings: human; for Cmax: intravenous; for level at 72 h: iv
# Protocol: Evaluation of the colistin concentration in plasma was performed after 3 days of treatment, when the colistin concentrations had reached steady state. The samples were immediately centrifuged (3000 g for 10 minutes) and the plasma was stored at −80°C until analysis. Colistin plasma trough concentrations (Cmin) were measured just before the next dose. Maximum plasma concentrations (Cmax) were taken 30 minutes after the end of the CMS infusion (1 h after the start of infusion).
# Colistin concentrations in plasma were determined using a validated high-performance liquid chromatography (HPLC) method as described by Li et al., with minor modifications. After protein precipitation, the samples were centrifuged (14000 g, 5 min) and the supernatant transferred to solid phase extraction (SPE) C18 cartridges (Sep-Pak, Waters, Milford, MA, USA), in which derivation with 9-fluorenylmethyl chloroformate (FMOC-Cl) was performed. Elution of the fluorescence derivatives was performed with acetone mixed with acetonitrile and boric acid. Finally, 20 μl of the mixture was injected into the HPLC. The HPLC system was made up of Waters equipment that included a Waters 2475 multi-λ Fluorescence Detector, a Waters 1525 binary pump with column heater, a Waters degasser, and a Waters 717 autoinjector sampler. The stationary phase was a Waters SunFire column C18, 4.6 × […], 5 μm. The mobile phase was a mixture of acetonitrile, tetrahydrofuran and water delivered at an isocratic flux of 1 mL/min. The chromatogram run time was 20 minutes and the detector setting was excitation wavelength 260 nm and emission wavelength 315 nm. The concentrations of colistin were calculated by multiplying the obtained colistin sulfate plasma concentrations by 1163/1403 (1163 being the average molecular weight of colistin A and B, which are the greater part of the products, and 1403 the average molecular weight of colistin sulfate). The colistin plasma concentration in each patient was calculated as the sum of colistin A and B, the two main components. Calibration curves were linear in the range 0.1-8 mcg/ml and the accuracy quality control samples varied from 90–110 % of the nominal concentration for intraday and interday analysis, with a precision (CV%) of 10% or less. The limit of quantification was 0.1 mcg/ml and the limit of detection was 0.05 mcg/mL.
# [2] = system: patients receiving intravenous colistin methanesulfonate sodium (CMS); assay: Colistin-associated nephrotoxicity: AKI by RIFLE criteria during CMS treatment; assay type: in vivo; settings: for N° (%) of patients fulfilling criterion: ESKD (E) / N° (%) of patients fulfilling criterion: Failure (F) / N° (%) of patients fulfilling criterion: Injury (I) / N° (%) of patients fulfilling criterion: Loss (L) / N° (%) of patients fulfilling criterion: No injury / N° (%) of patients fulfilling criterion: Risk (R): RIFLE
# Protocol: (§1) This prospective observational study was performed at a 400-bed acute-care university hospital in Barcelona, Spain. A pharmacy-generated alarm system was used to identify patients on CMS treatment for therapy of infections caused by MDR-GNB. From January 2010 to June 2011, patients (>18 years) were included if they had received colistin methanesulfonate sodium (CMS) for at least 4 days. Patients were excluded if they were receiving renal replacement therapy prior to the initiation of CMS.
# CMS for injection was used and dosed in millions of international units (IU) throughout the study. The drug was administered intravenously in 100 mL normal saline over 30 minutes in the commercially available colistimethate formulation for injection (GES Genéricos Españoles ®), with each vial containing 80 mg CMS (equivalent to 1 million international units of CMS). Dose selection was based on the individual criteria of the responsible clinicians, who were not aware that this study was being performed. Although there were some dose adjustments based on baseline renal function, common colistin doses ranged from 1 to 3 million international units (IU) every 8 hours (3–9 million IU daily). Dose adjustments were made according to the package insert’s recommended dosing as follows: GFR ≥ 76 mL/min/1.73 m^2, 4–6 million IU daily in three doses; GFR 40 to 75 mL/min/1.73 m^2, 2–3 million IU daily in 2 doses; GFR 25 to 40 mL/min/1.73 m^2, 1.5-2 million IU daily divided in 1 or 2 doses and; GFR < 25 mL/min/1.73 m^2 , 0.6-1 million of IU daily every 36 hours.
# Serum creatinine level and estimated glomerular filtration rate (GFR) were recorded at baseline, on day 7 and at the end of treatment (EOT). We chose these set points because blood tests are done routinely for all inpatients at least once a week and at the end of treatment. The abbreviated Modification of Diet in the Renal Disease Equation (MDRD-4) was used to calculate GFR. Chronic kidney disease (CKD) at baseline was considered if GFR was < 60 mL/min/1.73 m^2 for ≥ 3 months. Patients with increased creatinine (> 1.4 mg/dL) or GFR < 90 mL/min/1.73 m^2 at admission and no prior data regarding chronicity were considered as having acute renal failure due to any cause. The RIFLE criteria (risk, injury, failure, loss, and end-stage kidney disease), estimated with exclusion of the urinary output criterion, were used for detection and stratification of AKI [14] (Table 1). AKI during CMS treatment was defined as a 1.5-fold or more increase in serum creatinine and/or a decrease in the GFR of 25% or more. These criteria needed to be fulfilled for at least 2 consecutive determinations 24 hours apart, after ≥ 4 days of CMS therapy. Patients who developed AKI were followed up for a period of 30 days after the end of CMS treatment to evaluate the reversibility of this toxicity. Patients who died or had no data during this period were excluded from this analysis.
# Multivariate analysis of risk factors for colistin nephrotoxicity was constructed by using logistic regression. Univariate analyses were performed separately for each of the risk factor variables to ascertain the odds ratio and 95% confidence interval (CI). All clinically important covariates and those with a P value < 0.2 in the univariate analyses were included in the multivariate analysis. Since Cmax and Cmin values were almost equal, only one of these variables was included in the model.
# The ROC curve was used to identify a categorical breakpoint for Cmin that would better identify patients who develop acute kidney injury (AKI) on day 7 and at the end of treatment. For all analyses, a two-sided P value < 0.05 was considered to be statistically significant. The Statistical Package for the Social Sciences (SPSS, version 15.0) was used for statistical analysis.
# [3] = system: infections caused by MDR-GNB; assay: Clinical response to CMS treatment; assay type: in vivo, patients
# Protocol: as §1
# Data on demographic characteristics including age, gender, body weight, size, and body mass index were collected. Data on the indication for CMS, the administration schedule, the daily CMS dose recorded as millions of IU, the total cumulative CMS dose (millions of IU), and the duration of treatment were collected. Other data recorded included the presence of CKD at baseline, the Charlson score, the severity of disease at the time of the first CMS dose stratified according to the Acute Physiology and the Chronic Health Evaluation (APACHE) II [16]. The concomitant use of aminoglycosides, vancomycin, angiotensin II receptor blockers, angiotensin-converting enzyme inhibitors, loop diuretics, intravenous dye, amphotericin B, non-steroidal anti-inflammatory drugs (NSAIDs), the need for vasopressor drugs, and discontinuation of CMS treatment because of AKI were also recorded. The patient’s clinical status at the beginning of CMS treatment was defined as infection, severe sepsis and shock, according to the standard definition. Clinical response was defined as the resolution of signs, symptoms, and laboratory parameters that defined infection for each patient. The 30-day all-cause mortality was also recorded.
# [4] = system: patients receiving intravenous colistin methanesulfonate sodium (CMS); assay: 30-day all-cause mortality; assay type: in vivo; settings: 102 patients on iv CMS
# Text: Data on demographic characteristics including age, gender, body weight, size, and body mass index were collected. Data on the indication for CMS, the administration schedule, the daily CMS dose recorded as millions of IU, the total cumulative CMS dose (millions of IU), and the duration of treatment were collected. Other data recorded included the presence of CKD at baseline, the Charlson score, the severity of disease at the time of the first CMS dose stratified according to the Acute Physiology and the Chronic Health Evaluation (APACHE) II [16]. The concomitant use of aminoglycosides, vancomycin, angiotensin II receptor blockers, angiotensin-converting enzyme inhibitors, loop diuretics, intravenous dye, amphotericin B, non-steroidal anti-inflammatory drugs (NSAIDs), the need for vasopressor drugs, and discontinuation of CMS treatment because of AKI were also recorded. The patient’s clinical status at the beginning of CMS treatment was defined as infection, severe sepsis and shock, according to the standard definition. Clinical response was defined as the resolution of signs, symptoms, and laboratory parameters that defined infection for each patient. The 30-day all-cause mortality was also recorded. […]
# [5] = % of the 26 patients with nephrotoxicity at day 7
# [6] = End of treatment, multivariate logistic regression
compound,measurement,setting,value
CC[C@H](C)CCCCC(=O)N[C@@H](CCN)C(=O)N[C@H](C(=O)N[C@@H](CCN)C(=O)N[C@H]1CCNC(=O)[C@H]([C@@H](C)O)NC(=O)[C@H](CCN)NC(=O)[C@H](CCN)NC(=O)[C@H](CC(C)C)NC(=O)[C@@H](CC(C)C)NC(=O)[C@H](CCN)NC1=O)[C@@H](C)O [colistin] (X1-[Dab]T[Dab][Dab][Dab][dL]L[Dab][Dab]T; lactam 4-C),Cmax,"[1]; 1 million IU/8 h, CMS 1 million IU/8 h (n = 28), steady state, 30 min after infusion, median (interquartile range), read-out: Cmax",650 ng/mL
same,Cmax,"[1]; 2 million IU/8 h, CMS 2 million IU/8 h (n = 42), steady state, 30 min after infusion, median (interquartile range), read-out: Cmax",1130 ng/mL
same,Cmax,"[1]; 3 million IU/8 h, CMS 3 million IU/8 h (n = 16), steady state, 30 min after infusion, median (interquartile range), read-out: Cmax",1840 ng/mL
same,Cmax,"[1]; CMS other doses (n = 16), steady state, 30 min after infusion, median (interquartile range), read-out: Cmax",1500 ng/mL
same,Cmax,"[1]; first value of pair, taken as patients without acute renal failure at baseline, read-out: Peak colistin plasma level",1000 ng/mL
same,Cmax,"[1]; second value of pair, taken as patients with acute renal failure at baseline, read-out: Peak colistin plasma level",1820 ng/mL
same,level at 72 h,"[1]; 1 million IU/8 h, CMS 1 million IU/8 h (n = 28), steady state trough, median (interquartile range), read-out: Cmin",710 ng/mL
same,level at 72 h,"[1]; 2 million IU/8 h, CMS 2 million IU/8 h (n = 42), steady state trough, median (interquartile range), read-out: Cmin",1140 ng/mL
same,level at 72 h,"[1]; 3 million IU/8 h, CMS 3 million IU/8 h (n = 16), steady state trough, median (interquartile range), read-out: Cmin",1840 ng/mL
same,level at 72 h,"[1]; CMS other doses (n = 16), steady state trough, median (interquartile range), read-out: Cmin",1500 ng/mL
same,level at 72 h,"[1]; first value of pair, taken as patients without acute renal failure at baseline, read-out: Trough colistin plasma level",860 ng/mL
same,level at 72 h,"[1]; second value of pair, taken as patients with acute renal failure at baseline, read-out: Trough colistin plasma level",1790 ng/mL
colistin methanesulfonate sodium [CMS],Patients who developed AKI needing renal replacement therapy,[2]; 53 patients with AKI,None
same,Nephrotoxicity at day 7: F (Failure),[2]; [5],2 (7.6) n (%)
same,Nephrotoxicity at day 7: I (Injury),[2]; [5],8 (30.7) n (%)
same,Nephrotoxicity at day 7: R (Risk),[2]; [5],16 (61.5) n (%)
same,Nephrotoxicity at the end of treatment: I (Injury),[2]; % of the 50 patients with nephrotoxicity at EOT,23(46) n (%)
same,AKI at EOT,[2]; CMS 1 million IU/8 h (n = 28),14 (50) n (%)
same,AKI at day 7,[2]; CMS 1 million IU/8 h (n = 28),5 (17.9) n (%)
same,AKI at EOT,[2]; CMS 2 million IU/8 h (n = 42),21 (50) n (%)
same,AKI at day 7,[2]; CMS 2 million IU/8 h (n = 42),11 (26.2) n (%)
same,AKI at EOT,[2]; CMS 3 million IU/8 h (n = 16),9 (56.3) n (%)
same,AKI at day 7,[2]; CMS 3 million IU/8 h (n = 16),7 (43.8) n (%)
same,AKI at EOT,[2]; CMS other doses (n = 16),6 (37.5) n (%)
same,AKI at day 7,[2]; CMS other doses (n = 16),3 (18.8) n (%)
same,N° (%) of patients fulfilling criterion: ESKD (E),[2]; Day 7 (n = 102),0 (0) N° (%)
same,N° (%) of patients fulfilling criterion: Failure (F),[2]; Day 7 (n = 102),2 (2) N° (%)
same,N° (%) of patients fulfilling criterion: Injury (I),[2]; Day 7 (n = 102),8 (7.8) N° (%)
same,N° (%) of patients fulfilling criterion: Loss (L),[2]; Day 7 (n = 102),0 (0) N° (%)
same,N° (%) of patients fulfilling criterion: No injury,[2]; Day 7 (n = 102),76 (74.5) N° (%)
same,N° (%) of patients fulfilling criterion: Risk (R),[2]; Day 7 (n = 102),16 (15.7) N° (%)
same,Odds ratio (95% CI) of CMS cumulative dose at day 7 for nephrotoxicity,"[2]; Day 7, multivariate logistic regression",0.99 (0.94-1.04)
same,N° (%) of patients fulfilling criterion: ESKD (E),[2]; EOT (n = 102),0 (0) N° (%)
same,N° (%) of patients fulfilling criterion: Failure (F),[2]; EOT (n = 102),13 (12.7) N° (%)
same,N° (%) of patients fulfilling criterion: Injury (I),[2]; EOT (n = 102),23 (22.5) N° (%)
same,N° (%) of patients fulfilling criterion: Loss (L),[2]; EOT (n = 102),0 (0) N° (%)
same,N° (%) of patients fulfilling criterion: No injury,[2]; EOT (n = 102),52 (51) N° (%)
same,N° (%) of patients fulfilling criterion: Risk (R),[2]; EOT (n = 102),14 (13.7) N° (%)
same,Odds ratio (95% CI) of CMS cumulative dose for nephrotoxicity,[2]; [6],0.99 (0.98-1)
same,Odds ratio (95% CI) of CMS duration treatment for nephrotoxicity,[2]; [6],1.03 (0.98-1.08)
same,Patients with nephrotoxicity at day 7,"[2]; n=102, RIFLE criteria",26 (25.5) n (%)
same,Patients with nephrotoxicity at the end of treatment,"[2]; n=102, RIFLE criteria",50 (49) n (%)
same,Clinical response,[3]; CMS 1 million IU/8 h (n = 28),25 (89.3) n (%)
same,Clinical response,[3]; CMS 2 million IU/8 h (n = 42),32 (76.2) n (%)
same,Clinical response,[3]; CMS 3 million IU/8 h (n = 16),11 (68.8) n (%)
same,Clinical response,[3]; CMS other doses (n = 16),11 (68.8) n (%)
same,Clinical response,[3]; all included patients n=102,79 (77.5) n (%)
same,30-day all-cause mortality rate,[4],32.4%
